Test results taken from patent US9738634B2, “Heterocyclic amide compound and herbicide” (SYNGENTA PARTICIPATIONS AG, priority 2013, dated 2017).

Tests used:
Assay type in all cases: in vivo
common wind-grass = assay: Test Example 3: weedkilling efficacy through soil treatment; J: common wind-grass; conditions: soil treatment, treatment dosage 80 g/ha
From the text: (§1) Weedkilling Efficacy Test Through Soil Treatment
(§2) Sterilized diluvial soil was introduced into 21 cm long, 13 cm wide, 7 cm deep plastic boxes, and seeds of crabgrass, green foxtail, barnyard grass, wild oat, black-grass, Italian ryegrass, common wind-grass, Indian mallow, redroot pigweed, fig-leafed goosefoot, chickweed, catchweed, birds-eye speedwell, corn, soybean, rice, wheat, beet and rapeseed were each spot-sown, and covered with about 1.5 cm of soil. Next, emulsions of compounds of the present invention prepared according to compounding example 2 were diluted with water to give the specified dosages, and applied uniformly onto the soil surface with a small sprayer. The plants were grown by placing the plastic boxes in a greenhouse at 25 to 30° C., and 3 weeks after the pesticide treatment the effect on each type of plant was investigated on the basis of the assessment criteria of test example 1.
(§3) A: barnyard grass, B: bulrush, C: oval-leafed pondweed, D: crabgrass, E: green foxtail, F: barnyard grass, G: wild oat, H: black-grass, I: Italian ryegrass, J: common wind-grass, K: Indian mallow, L: redroot pigweed, M: fig-leafed goosefoot, N: chickweed, O: catchweed, p: birds-eye speedwell, a: transplanted rice, b: directly sown rice, c: corn, d: soybean, e: wheat, f: beet, g: rapeseed
(§4) Further, pesticide dosage (g/ha) indicates the concentration regulated such that treatment was with only the stated number of grams (g), when calculated per hectare (ha).

black-grass = assay: Test Example 3: weedkilling efficacy through soil treatment; H: black-grass; conditions: soil treatment
Summary of the method: (§5)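 Crop and weed responses were judged three weeks after a uniform surface spray of the water-diluted emulsion at the given g/ha rate. Seeds sat beneath about 1.5 cm of sterilized diluvial soil, and boxes stood in a greenhouse at 25 to 30° C.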

Italian ryegrass = assay: Test Example 3: weedkilling efficacy through soil treatment; I: Italian ryegrass; conditions: soil treatment
Summary of the method: as §5

rapeseed = assay: Test Example 3: soil treatment, effect on crop; g: rapeseed; conditions: soil treatment, treatment dosage 80 g/ha
From the text: as §1, §2, §3, §4

wheat = assay: Test Example 3: soil treatment, effect on crop; e: wheat; conditions: soil treatment
Summary of the method: as §5

bulrush [1] = assay: Test Example 1: weedkilling efficacy, preemergent weed treatment in the submerged state; B: bulrush; conditions: treatment dosage 252 g/ha
Summary of the method: (§6)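 Pots of alluvial soil flooded 4 cm deep, sown with barnyard grass, bulrush and oval-leafed pondweed and transplanted with 2.5-leaf rice. Emulsified compound applied to the water surface on sowing day at stated g/ha; greenhouse 25–30 °C, effects assessed 3 weeks after treatment.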

birds-eye speedwell = assay: Test Example 3: weedkilling efficacy through soil treatment; p: birds-eye speedwell; conditions: soil treatment, treatment dosage 315 g/ha
Summary of the method: as §5

fig-leafed goosefoot = assay: Test Example 3: weedkilling efficacy through soil treatment; M: fig-leafed goosefoot; conditions: soil treatment, treatment dosage 315 g/ha
Summary of the method: as §5

chickweed = assay: Test Example 3: weedkilling efficacy through soil treatment; N: chickweed; conditions: soil treatment, treatment dosage 315 g/ha
Summary of the method: as §5

crabgrass = assay: Test Example 3: weedkilling efficacy through soil treatment; D: crabgrass; conditions: soil treatment, treatment dosage 315 g/ha
Summary of the method: as §5

Indian mallow = assay: Test Example 3: weedkilling efficacy through soil treatment; K: Indian mallow; conditions: soil treatment, treatment dosage 315 g/ha
Summary of the method: as §5

oval-leafed pondweed [2] = assay: Test Example 2: weedkilling efficacy, growth period weed treatment in the submerged state; C: oval-leafed pondweed; conditions: treatment dosage 252 g/ha
Summary of the method: (§7)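 Barnyard grass, bulrush and oval-leafed pondweed sown in alluvial soil under 4 cm flooding, greenhouse 25 to 30° C. At 1-2 leaf stage, water-diluted emulsion applied to the water surface at stated g/ha dosages; effects scored 3 weeks later.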

corn = assay: Test Example 3: soil treatment, effect on crop; c: corn; conditions: soil treatment, treatment dosage 315 g/ha
Summary of the method: as §5

wild oat = assay: Test Example 3: weedkilling efficacy through soil treatment; G: wild oat; conditions: soil treatment, treatment dosage 315 g/ha
Summary of the method: as §5

green foxtail = assay: Test Example 3: weedkilling efficacy through soil treatment; E: green foxtail; conditions: soil treatment, treatment dosage 315 g/ha
Summary of the method: as §5

directly sown rice = assay: Test Example 3: soil treatment, effect on crop; b: directly sown rice; conditions: soil treatment, treatment dosage 315 g/ha
Summary of the method: as §5

barnyard grass [3] = assay: Test Example 1: weedkilling efficacy, preemergent weed treatment in the submerged state; A: barnyard grass; conditions: treatment dosage 252 g/ha
Summary of the method: as §6

oval-leafed pondweed [4] = assay: Test Example 1: weedkilling efficacy, preemergent weed treatment in the submerged state; C: oval-leafed pondweed; conditions: treatment dosage 252 g/ha
Summary of the method: as §6

redroot pigweed = assay: Test Example 3: weedkilling efficacy through soil treatment; L: redroot pigweed; conditions: soil treatment, treatment dosage 315 g/ha
Summary of the method: as §5

bulrush [5] = assay: Test Example 2: weedkilling efficacy, growth period weed treatment in the submerged state; B: bulrush; conditions: treatment dosage 252 g/ha
Summary of the method: as §7

soybean = assay: Test Example 3: soil treatment, effect on crop; d: soybean; conditions: soil treatment, treatment dosage 315 g/ha
Summary of the method: as §5

beet = assay: Test Example 3: soil treatment, effect on crop; f: beet; conditions: soil treatment, treatment dosage 315 g/ha
Summary of the method: as §5

barnyard grass [6] = assay: Test Example 2: weedkilling efficacy, growth period weed treatment in the submerged state; A: barnyard grass; conditions: treatment dosage 252 g/ha
Summary of the method: as §7

catchweed = assay: Test Example 3: weedkilling efficacy through soil treatment; O: catchweed; conditions: soil treatment, treatment dosage 315 g/ha
From the text: as §1, §2, §3, §4

transplanted rice = assay: Test Example 1: preemergent weed treatment in the submerged state, effect on crop; a: transplanted rice; conditions: treatment dosage 252 g/ha
Summary of the method: as §6

## CC(C)(C(=O)Nc1nc(C(F)(F)F)cs1)N1COCN(c2ccccc2)C1=O [A-1-06]
Common wind-grass
  J: common wind-grass, weedkilling efficacy grade: 5 (weed kill ratio 90% or more, (practically complete withering))
black-grass; treatment dosage 80 g/ha
  H: black-grass, weedkilling efficacy grade: 5 (weed kill ratio 90% or more, (practically complete withering))
Italian ryegrass; treatment dosage 80 g/ha
  I: Italian ryegrass, weedkilling efficacy grade: 5 (weed kill ratio 90% or more, (practically complete withering))
rapeseed
  g: rapeseed, effect on crop grade: 4 (weed kill ratio 70% or more, less than 90%)

## CC(C)(C(=O)Nc1ccnc(Cl)n1)N1COCN(c2ccccc2)C1=O [A-1-20]
Common wind-grass
  J: common wind-grass, weedkilling efficacy grade: 5 (weed kill ratio 90% or more, (practically complete withering))
black-grass; treatment dosage 80 g/ha
  H: black-grass, weedkilling efficacy grade: 5 (weed kill ratio 90% or more, (practically complete withering))
Italian ryegrass; treatment dosage 80 g/ha
  I: Italian ryegrass, weedkilling efficacy grade: 5 (weed kill ratio 90% or more, (practically complete withering))
wheat; treatment dosage 80 g/ha
  e: wheat, effect on crop grade: 1 (weed kill ratio 5% or more, less than 20%)
rapeseed
  g: rapeseed, effect on crop grade: 1 (weed kill ratio 5% or more, less than 20%)

## CC(C)(C(=O)Nc1cc(Cl)nc(Cl)n1)N1COCN(c2ccccc2)C1=O [A-1-21]
Common wind-grass
  J: common wind-grass, weedkilling efficacy grade: 5 (weed kill ratio 90% or more, (practically complete withering))
black-grass; treatment dosage 80 g/ha
  H: black-grass, weedkilling efficacy grade: 4 (weed kill ratio 70% or more, less than 90%)
Italian ryegrass; treatment dosage 80 g/ha
  I: Italian ryegrass, weedkilling efficacy grade: 4 (weed kill ratio 70% or more, less than 90%)
wheat; treatment dosage 80 g/ha
  e: wheat, effect on crop grade: 0 (weed kill ratio 5% or less (practically no effect))
rapeseed
  g: rapeseed, effect on crop grade: 0 (weed kill ratio 5% or less (practically no effect))

## CC(C)(C(=O)Nc1cc(Br)ccn1)N1COCN(c2ccccc2)C1=O [A-2-08]
Common wind-grass
  J: common wind-grass, weedkilling efficacy grade: 5 (weed kill ratio 90% or more, (practically complete withering))
black-grass; treatment dosage 80 g/ha
  H: black-grass, weedkilling efficacy grade: 5 (weed kill ratio 90% or more, (practically complete withering))
Italian ryegrass; treatment dosage 80 g/ha
  I: Italian ryegrass, weedkilling efficacy grade: 5 (weed kill ratio 90% or more, (practically complete withering))
wheat; treatment dosage 80 g/ha
  e: wheat, effect on crop grade: 0 (weed kill ratio 5% or less (practically no effect))
rapeseed
  g: rapeseed, effect on crop grade: 0 (weed kill ratio 5% or less (practically no effect))

## CC(C)(C(=O)Nc1cccc(I)n1)N1COCN(c2ccccc2)C1=O [A-2-11]
Bulrush [1]
  B: bulrush, weed kill grade: 5 (weed kill ratio 90% or more, (practically complete withering))
birds-eye speedwell
  P: birds-eye speedwell, weedkilling efficacy grade: 4 (weed kill ratio 70% or more, less than 90%)
fig-leafed goosefoot
  M: fig-leafed goosefoot, weedkilling efficacy grade: 3 (weed kill ratio 40% or more, less than 70%)
chickweed
  N: chickweed, weedkilling efficacy grade: 4 (weed kill ratio 70% or more, less than 90%)
crabgrass
  D: crabgrass, weedkilling efficacy grade: 5 (weed kill ratio 90% or more, (practically complete withering))
Indian mallow
  K: Indian mallow, weedkilling efficacy grade: 0 (weed kill ratio 5% or less (practically no effect))
oval-leafed pondweed [2]
  C (oval-leafed pondweed) weedkilling efficacy grade: 3 (weed kill ratio 40% or more, less than 70%)
corn
  c: corn, effect on crop grade: 0 (weed kill ratio 5% or less (practically no effect))
Wild oat
  G: wild oat, weedkilling efficacy grade: 2 (weed kill ratio 20% or more, less than 40%)
Green foxtail
  E: green foxtail, weedkilling efficacy grade: 5 (weed kill ratio 90% or more, (practically complete withering))
Directly sown rice
  b: directly sown rice, effect on crop grade: 3 (weed kill ratio 40% or more, less than 70%)
Barnyard grass [3]
  A: barnyard grass, weed kill grade: 5 (weed kill ratio 90% or more, (practically complete withering))
oval-leafed pondweed [4]
  C: oval-leafed pondweed, weed kill grade: 5 (weed kill ratio 90% or more, (practically complete withering))
Redroot pigweed
  L: redroot pigweed, weedkilling efficacy grade: 0 (weed kill ratio 5% or less (practically no effect))
black-grass; treatment dosage 315 g/ha
  H: black-grass, weedkilling efficacy grade: 5 (weed kill ratio 90% or more, (practically complete withering))
Bulrush [5]
  B (bulrush) weedkilling efficacy grade: 5 (weed kill ratio 90% or more, (practically complete withering))
Italian ryegrass; treatment dosage 315 g/ha
  I: Italian ryegrass, weedkilling efficacy grade: 5 (weed kill ratio 90% or more, (practically complete withering))
wheat; treatment dosage 315 g/ha
  e: wheat, effect on crop grade: 1 (weed kill ratio 5% or more, less than 20%)
soybean
  d: soybean, effect on crop grade: 0 (weed kill ratio 5% or less (practically no effect))
beet
  f: beet, effect on crop grade: 2 (weed kill ratio 20% or more, less than 40%)
Barnyard grass [6]
  A (barnyard grass) weedkilling efficacy grade: 4 (weed kill ratio 70% or more, less than 90%)
catchweed
  O: catchweed, weedkilling efficacy grade: 2 (weed kill ratio 20% or more, less than 40%)
Transplanted rice
  a: transplanted rice, effect on crop grade: 0 (weed kill ratio 5% or less (practically no effect))

## CC(C)(C(=O)Nc1cc(C(F)F)cc(Cl)n1)N1COCN(c2ccccc2)C1=O [A-2-27]
Common wind-grass
  J: common wind-grass, weedkilling efficacy grade: 5 (weed kill ratio 90% or more, (practically complete withering))
black-grass; treatment dosage 80 g/ha
  H: black-grass, weedkilling efficacy grade: 5 (weed kill ratio 90% or more, (practically complete withering))
Italian ryegrass; treatment dosage 80 g/ha
  I: Italian ryegrass, weedkilling efficacy grade: 5 (weed kill ratio 90% or more, (practically complete withering))
wheat; treatment dosage 80 g/ha
  e: wheat, effect on crop grade: 1 (weed kill ratio 5% or more, less than 20%)
rapeseed
  g: rapeseed, effect on crop grade: 2 (weed kill ratio 20% or more, less than 40%)

## Cc1ccnc(NC(=O)C(C)(C)N2COCN(c3ccccc3)C2=O)c1 [A-2-37]
Bulrush [1]
  B: bulrush, weed kill grade: 5 (weed kill ratio 90% or more, (practically complete withering))
birds-eye speedwell
  P: birds-eye speedwell, weedkilling efficacy grade: 5 (weed kill ratio 90% or more, (practically complete withering))
fig-leafed goosefoot
  M: fig-leafed goosefoot, weedkilling efficacy grade: 3 (weed kill ratio 40% or more, less than 70%)
chickweed
  N: chickweed, weedkilling efficacy grade: 1 (weed kill ratio 5% or more, less than 20%)
crabgrass
  D: crabgrass, weedkilling efficacy grade: 5 (weed kill ratio 90% or more, (practically complete withering))
Indian mallow
  K: Indian mallow, weedkilling efficacy grade: 0 (weed kill ratio 5% or less (practically no effect))
oval-leafed pondweed [2]
  C (oval-leafed pondweed) weedkilling efficacy grade: 3 (weed kill ratio 40% or more, less than 70%)
corn
  c: corn, effect on crop grade: 1 (weed kill ratio 5% or more, less than 20%)
Wild oat
  G: wild oat, weedkilling efficacy grade: 3 (weed kill ratio 40% or more, less than 70%)
Green foxtail
  E: green foxtail, weedkilling efficacy grade: 4 (weed kill ratio 70% or more, less than 90%)
Directly sown rice
  b: directly sown rice, effect on crop grade: 2 (weed kill ratio 20% or more, less than 40%)
Barnyard grass [3]
  A: barnyard grass, weed kill grade: 5 (weed kill ratio 90% or more, (practically complete withering))
oval-leafed pondweed [4]
  C: oval-leafed pondweed, weed kill grade: 5 (weed kill ratio 90% or more, (practically complete withering))
Redroot pigweed
  L: redroot pigweed, weedkilling efficacy grade: 1 (weed kill ratio 5% or more, less than 20%)
black-grass; treatment dosage 315 g/ha
  H: black-grass, weedkilling efficacy grade: 3 (weed kill ratio 40% or more, less than 70%)
Bulrush [5]
  B (bulrush) weedkilling efficacy grade: 5 (weed kill ratio 90% or more, (practically complete withering))
Italian ryegrass; treatment dosage 315 g/ha
  I: Italian ryegrass, weedkilling efficacy grade: 5 (weed kill ratio 90% or more, (practically complete withering))
wheat; treatment dosage 315 g/ha
  e: wheat, effect on crop grade: 0 (weed kill ratio 5% or less (practically no effect))
soybean
  d: soybean, effect on crop grade: 0 (weed kill ratio 5% or less (practically no effect))
beet
  f: beet, effect on crop grade: 0 (weed kill ratio 5% or less (practically no effect))
Barnyard grass [6]
  A (barnyard grass) weedkilling efficacy grade: 5 (weed kill ratio 90% or more, (practically complete withering))
catchweed
  O: catchweed, weedkilling efficacy grade: 0 (weed kill ratio 5% or less (practically no effect))
Transplanted rice
  a: transplanted rice, effect on crop grade: 0 (weed kill ratio 5% or less (practically no effect))
